Experimental data published in patent US6451784B1 (priority 1996, dated 2002).
Entries after “also recorded” stand apart in the source; their conditions may differ. Read-outs that look alike come from different tables or passages of the source. Starred links: 1 amine or outer side, 2 acyl side, 3 side chain; linkers in the order of their positions; H or OH if unused. Positions of bridges follow the written chain, without caps; N, C: chain ends. Non-standard residues stand in square brackets, D forms with d. Residues, ends and D or L forms follow the SMILES beside them. Chains are numbered I, II in the order given. Actinocin(9to1) = Cc1c2oc3c(C)ccc(C(=O)[*:1])c3nc-2c(C(=O)[*:2])c(N)c1=O; NMeV = CN[C@H](C(=O)O)C(C)C; Sar = CNCC(=O)O

Tests used:
[1] = test system: neoplastic lung disease; parameters: species or system dogs; conditions: dog, in vivo
[2] = test system: healthy animals; conditions: in vivo; cited from earlier work
[3] = test system: patients; conditions: cited from earlier work
[4] = test system: gross metastatic disease, micrometastatic hemangiosarcoma or micrometastatic primary lung cancer; parameters: species or system dogs; conditions: dog, in vivo
[5] = dog, in vivo
[6] = share of drug bound in a protein-containing solution; cited from earlier work
[7] = test system: mice; conditions: intraperitoneal pretreatment, bleomycin subcutaneous; cited from earlier work
[8] = test system: 68-2 Adenocarcinoma Cells
[9] = test system: rats; conditions: rat, in vivo

## O=P1(N(CCCl)CCCl)NCCCO1 (stereo not drawn) [CTX]
[1]
  Results: SD lung

## O=P1(N(CCCl)CCCl)NCCCO1 (stereo not drawn) [Cyclophosphamide, cyclophosphamide]
[2]
  Toxic effects to the respiratory tract: only mild inflammation

## Cc1c2oc3c(C)ccc(C(=O)N[C@@H]4C(=O)N[C@H](C(C)C)C(=O)N5CCC[C@H]5C(=O)N(C)CC(=O)N(C)[C@@H](C(C)C)C(=O)O[C@@H]4C)c3nc-2c(C(=O)N[C@@H]2C(=O)N[C@H](C(C)C)C(=O)N3CCC[C@H]3C(=O)N(C)CC(=O)N(C)[C@@H](C(C)C)C(=O)O[C@@H]2C)c(N)c1=O [Dactinomycin] (I: T[dV]P[Sar][NMeV] / II: T[dV]P[Sar][NMeV]; ester I:1-I:C, II:1-II:C; linker I:N-II:N via Actinocin(9to1))
[3]
  Pulmonary toxicity of the IV administered drug: no mention is made of pulmonary toxicity

## COc1cccc2c1C(=O)c1c(O)c3c(c(O)c1C2=O)C[C@@](O)(C(=O)CO)C[C@@H]3O[C@H]1C[C@H](N)[C@H](O)[C@H](C)O1 [Doxorubicin, doxorubicin]
[1]
  Development of lung metastases: no metastases developed in the lung for four months
[3]
  Pulmonary toxicity of the IV administered drug: no indication of pulmonary toxicity
[4]
  Outcome after inhalation treatment: alive with no evidence of disease 81 days later
[4]; iv
  Disease in the lung: no evidence of disease in the lung
[5]
  Clearance from the lung after pulmonary administration: not rapidly cleared from the lung
  Damage to the respiratory tract at necropsy: no damage to the respiratory tract was observed
  Peak blood levels following inhalation exposure compared with IV: over an order of magnitude lower
  Systemic doxorubicin level after about 4 hours, IV relative to pulmonary route: about six times higher
[5]; iv, 1 mg/kg
  Initial plasma concentration at 2 minutes, IV relative to pulmonary route: about 1.5 orders of magnitude

## COc1cc([C@@H]2c3cc4c(cc3[C@@H](O[C@@H]3O[C@@H]5CO[C@@H](C)O[C@H]5[C@H](O)[C@H]3O)[C@H]3COC(=O)[C@H]23)OCO4)cc(OC)c1O [Etoposide, etoposide]
[3]
  Pulmonary toxicity of the IV administered drug: no indication of pulmonary toxicity

## CC(=O)[C@]1(O)Cc2c(O)c3c(c(O)c2[C@@H](O[C@H]2C[C@H](N)[C@H](O)[C@H](C)O2)C1)C(=O)c1ccccc1C3=O [Idarubicin]
[3]
  Pulmonary toxicity of the IV administered drug: no mention is made of pulmonary toxicity

## CCc1c2c(nc3ccc(OC(=O)N4CCC(N5CCCCC5)CC4)cc13)-c1cc3c(c(=O)n1C2)COC(=O)[C@]3(O)CC [Irinotecan]
[3]
  Pulmonary toxicity of the IV administered drug: no mention is made of pulmonary toxicity

## CO[C@@]12[C@H](COC(N)=O)C3=C(C(=O)C(C)=C(N)C3=O)N1C[C@@H]1N[C@@H]12 [Mutamycin, mitomycin]
[2]
  Toxic effects to the respiratory tract: the most severe results

## CC(=O)O[C@H]1C(=O)[C@@]2(C)[C@H]([C@H](OC(=O)c3ccccc3)[C@]3(O)C[C@H](OC(=O)[C@H](O)[C@@H](NC(=O)c4ccccc4)c4ccccc4)C(C)=C1C3(C)C)[C@]1(OC(C)=O)CO[C@@H]1C[C@@H]2O [Taxol, Paclitaxel]
[1]
  Results: SD (4 weeks) lung; also recorded: PD lung, Rx discontinued
[3]
  Pulmonary toxicity of the IV administered drug: pulmonary toxicity is not listed
[4]
  Outcome after inhalation treatment: no evidence of disease
  Results: SD (PR after; also recorded: PD (PR noted; also recorded: Alive and NED

## CC[C@]1(O)C[C@H]2CN(CCc3c([nH]c4ccccc34)[C@@](C(=O)OC)(c3cc4c(cc3OC)N(C=O)[C@H]3[C@@](O)(C(=O)OC)[C@H](OC(C)=O)[C@]5(CC)C=CCN6CC[C@]43[C@@H]65)C2)C1 [Vincristine, vincristine]
[3]
  Pulmonary toxicity of the IV administered drug: no pulmonary toxicity noted

## Nc1ccn([C@@H]2O[C@H](CO)[C@@H](O)[C@@H]2O)c(=O)n1 [cytarabine]
[6]
  Protein binding affinity: 13%

## C[C@@H](CN1CC(=O)NC(=O)C1)N1CC(=O)NC(=O)C1 [dexrazoxane]
[7]
  Protection against bleomycin-induced pulmonary damage: reduced pulmonary alterations particularly fibrosis

## carboplatin
[8]; Group 2, IV 180 mg/m^2, Day 61
  Mean Lung Weight: 1.37 ± 0.16 g
  Mean Percentage of Lung W/Tumors: 10 ± 0%
[8]; Group 3, IV 300 mg/m^2, Day 61
  Mean Lung Weight: 1.37 ± 0.11 g
  Mean Percentage of Lung W/Tumors: 10 ± 0%
[8]; rat, IV 180 or 300 mg/m^2, Day 61
  Lung covered by tumor: 10%
[8]; rat, both low (180 mg/m^2) and high (300 mg/m^2) dose, Day 61
  Average lung and lung tumor weight: 1.37 gram
[9]
  Tolerated dose when given by inhalation: up to 1.9 mg/m^2
